Source: PubChem BioAssay (NCI)
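Following 48 hours of exposure in 96-well plates, responses at five concentrations were used to interpolate endpoints linearly. Abbreviation: GI50, concentration required for 50% inhibition of growth. TGI: concentration producing complete growth inhibition.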

Key:
Assay in all cases: growth of human tumour cells (NCI), 48 h
[1] = test system: 786-0 renal
[2] = test system: A498 renal
[3] = test system: A549 NSCLC
[4] = test system: ACHN renal
[5] = test system: BT-549 breast
[6] = test system: CAKI-1 renal
[7] = test system: CCRF-CEM leukemia
[8] = test system: COLO 205 colon
[9] = test system: DU-145 prostate
[10] = test system: EKVX NSCLC
[11] = test system: HCC-2998 colon
[12] = test system: HCT-116 colon
[13] = test system: HCT-15 colon
[14] = test system: HL-60(TB) leukemia
[15] = test system: HOP-62 NSCLC
[16] = test system: HOP-92 NSCLC
[17] = test system: HS 578T breast
[18] = test system: HT29 colon
[19] = test system: IGROV1 ovarian
[20] = test system: K-562 leukemia
[21] = test system: KM12 colon
[22] = test system: LOX IMVI melanoma
[23] = test system: M14 melanoma
[24] = test system: MALME-3M melanoma
[25] = test system: MCF7 breast
[26] = test system: MDA-MB-231 breast
[27] = test system: MDA-MB-435
[28] = test system: MOLT-4 leukemia
[29] = test system: NCI-H226 lung
[30] = test system: NCI-H23 lung
[31] = test system: NCI-H460 lung
[32] = test system: NCI-H522 lung
[33] = test system: NCI/ADR-RES ovarian
[34] = test system: OVCAR-3 ovarian
[35] = test system: OVCAR-4 ovarian
[36] = test system: OVCAR-5 ovarian
[37] = test system: OVCAR-8 ovarian
[38] = test system: PC-3 prostate
[39] = test system: RPMI-8226 leukemia
[40] = test system: RXF 393 renal
[41] = test system: SF-268 CNS
[42] = test system: SF-295 CNS
[43] = test system: SF-539 CNS
[44] = test system: SK-MEL-2 melanoma
[45] = test system: SK-MEL-28 melanoma
[46] = test system: SK-MEL-5 melanoma
[47] = test system: SK-OV-3 ovarian
[48] = test system: SN12C renal
[49] = test system: SNB-19 CNS
[50] = test system: SNB-75 CNS
[51] = test system: SR leukemia
[52] = test system: SW-620 colon
[53] = test system: T-47D breast
[54] = test system: TK-10 renal
[55] = test system: U251 CNS
[56] = test system: UACC-257 melanoma
[57] = test system: UACC-62 melanoma
[58] = test system: UO-31 renal

SMILES: Nc1nc(N)c2c(n1)NC(c1ccccc1)C1CCc3ccccc3C1=N2 (stereo not given)
- GI50 [1]: 5.99 µM
- TGI [1]: 19.1 µM
- GI50 [2]: 2.29 µM
- TGI [2]: 8.66 µM
- GI50 [3]: 7.11 µM
- TGI [3]: 26 µM
- GI50 [4]: 4.38 µM
- TGI [4]: 16.8 µM
- GI50 [5]: 5.42 µM
- TGI [5]: 19.7 µM
- GI50 [6]: 3.97 µM
- TGI [6]: 18.3 µM
- GI50 [7]: 4.47 µM
- TGI [7]: > 100 µM
- GI50 [8]: 3.07 µM
- TGI [8]: 10.9 µM
- GI50 [9]: 4.38 µM
- TGI [9]: 17.1 µM
- GI50 [10]: 2.68 µM
- TGI [10]: 15.1 µM
- GI50 [11]: 3.82 µM
- TGI [11]: 15.6 µM
- GI50 [12]: 2.97 µM
- TGI [12]: 12.7 µM
- GI50 [13]: 4.06 µM
- TGI [13]: 17.1 µM
- GI50 [14]: 2.37 µM
- TGI [14]: 6.01 µM
- GI50 [15]: 7.87 µM
- TGI [15]: 21.3 µM
- GI50 [16]: 2.55 µM
- TGI [16]: 10.8 µM
- GI50 [17]: 5.85 µM
- TGI [17]: 30 µM
- GI50 [18]: 3.66 µM
- TGI [18]: 14.4 µM
- GI50 [19]: 4.45 µM
- TGI [19]: 19.4 µM
- GI50 [20]: 3.42 µM
- GI50 [21]: 4.07 µM
- TGI [21]: 14.9 µM
- GI50 [22]: 3.79 µM
- TGI [22]: 15.1 µM
- GI50 [23]: 4.88 µM
- TGI [23]: 18 µM
- GI50 [24]: 2.13 µM
- TGI [24]: 17.9 µM
- GI50 [25]: 3.25 µM
- TGI [25]: 13.5 µM
- GI50 [26]: 6.02 µM
- TGI [26]: 20.3 µM
- GI50 [27]: 2.93 µM
- TGI [27]: 12.6 µM
- GI50 [28]: 2.7 µM
- TGI [28]: 14.7 µM
- GI50 [29]: 5.96 µM
- TGI [29]: 28.9 µM
- GI50 [30]: 4.56 µM
- TGI [30]: 19.4 µM
- GI50 [31]: 3.81 µM
- TGI [31]: 14.4 µM
- GI50 [32]: 4.53 µM
- TGI [32]: 21.2 µM
- GI50 [33]: 3.13 µM
- TGI [33]: 13.6 µM
- GI50 [34]: 3.48 µM
- TGI [34]: 15.4 µM
- GI50 [35]: 3.06 µM
- TGI [35]: 17.1 µM
- GI50 [36]: 14.2 µM
- TGI [36]: 28 µM
- GI50 [37]: 4.71 µM
- TGI [37]: 25.4 µM
- GI50 [38]: 2.82 µM
- TGI [38]: 47.7 µM
- GI50 [39]: 3.21 µM
- TGI [39]: 87.1 µM
- GI50 [40]: 4.89 µM
- TGI [40]: 19 µM
- GI50 [41]: 6.96 µM
- TGI [41]: 20 µM
- GI50 [42]: 1.69 µM
- TGI [42]: 8.12 µM
- GI50 [43]: 5.81 µM
- TGI [43]: 18.8 µM
- GI50 [44]: 3.48 µM
- TGI [44]: 14 µM
- GI50 [45]: 7.72 µM
- TGI [45]: 20.2 µM
- GI50 [46]: 0.638 µM
- TGI [46]: 2.25 µM
- GI50 [47]: 10.3 µM
- TGI [47]: 22.7 µM
- GI50 [48]: 7.33 µM
- TGI [48]: 21.3 µM
- GI50 [49]: 15.6 µM
- TGI [49]: 29.8 µM
- GI50 [50]: 7.95 µM
- TGI [50]: 20.8 µM
- GI50 [51]: 4.52 µM
- TGI [51]: > 100 µM
- GI50 [52]: 6.3 µM
- TGI [52]: 20.7 µM
- GI50 [53]: 4.57 µM
- TGI [53]: 25.6 µM
- GI50 [54]: 3.01 µM
- TGI [54]: 14.8 µM
- GI50 [55]: 4.65 µM
- TGI [55]: 17.4 µM
- GI50 [56]: 3.72 µM
- TGI [56]: 15 µM
- GI50 [57]: 3.11 µM
- TGI [57]: 18.2 µM
- GI50 [58]: 2.5 µM
- TGI [58]: 13.7 µM
